Broadly, the LD50 is the dose at which mortality reaches 50%. High values mean a less toxic substance, low ones a more toxic substance.

Values after ≈ are worked out from the molar mass of the structure shown. “Also recorded” adds a separate entry of the source. Counter-ions that a name gives are not always drawn. Like-named read-outs stand apart in the source and are kept apart here.

Data set [1] deals with Gram-positive and Gram-negative bacteria. Put plainly: antibacterial spectrum, statement in words. Type of data set: cell-based. The text has this:
(§1) Table 4 illustrates the antibacterial spectra of Fortimicin D and Fortimicin KE against various microorganisms.
(§2) (Minimum Inhibitory Concentration, γ/ml
(§3) measured by agar dilution method at pH 8.0)

Data set [2] in a line: solubility of the free base. As to conditions: for solubility in organic solvents: chloroform, benzene, ethyl acetate, butyl acetate, ethyl ether, butanol, petroleum ether, n-hexane, etc., ordinary organic solvents; for solubility in ethanol and acetone / solubility in methanol / solubility in water: free base. The data set is classed as physicochemical.
Data set [3] concerns Bacillus subtilis No. 10707. The data set is described as follows: antibacterial activity of preparations (paper disc method). Type of data set: cell-based. The method, then: After the completion of fermentation, the culture liquor is adjusted to pH 2.5 with concentrated sulfuric acid and is stirred for 30 minutes. Thereafter, about 7 kg of a filter aid, Radiolite No. 600 (product of Showa Kagaku Kogyo Co., Ltd.) is added to the culture liquor and the microbial cells are removed by filtration. The filtrate is adjusted to pH 7.5 by the addition of 6N sodium hydroxide, and then passed through a column packed with about 20 l of a cation exchange resin, Amberlite IRC-50 (ammonium form). The active principles are adsorbed on the resin, and the effluent is discarded. After the resin is washed with water, elution of the active principles is carried out with 0.5N aqueous ammonia. The eluate is subjected to determination of activity by a paper disc method using an agar plate of Bacillus subtilis No. 10707. Fractions showing an activity are combined and concentrated under reduced pressure to about 1 L. The concentrate is then passed through a column packed with 500 ml of an anion exchange resin, Dowex 1 × 2 (OH form) and then about 2 L of water is passed through the column. In this manner, impurities are removed and the active principles are eluted with water. The active fractions are combined and concentrated under reduced pressure to about 100 ml. The concentrate is passed through a column packed with about 50 ml of active carbon powder whereby the active principles are adsorbed. The column is washed with water and the effluent and washings are discarded. Elution is carried out with 0.2N sulfuric acid. The eluate is subjected to determination of activity by a paper disc method using Bacillus subtilis No. 10707. The active fractions are combined and passed through a column of a resin, Dowex 44 (OH form) and elution of the active principles is carried out with water. The active fractions are combined and concentrated to about 50 ml. The concentrate is freeze-dried to obtain a crude powder of Fortimicin complex. The yield of the crude powder is about 35 g and the activity is 580 unit/mg (activity of 1 mg of the pure preparate corresponds to 1,000 units).
About 500 ml of silica gel is suspended in a solvent comprising isopropanol, chloroform, and concentrated aqueous ammonia (4:2:1 by volume) and packed in a glass column as a tight, uniform layer. Thereafter, the column is thoroughly washed with the same solvent. Then 10 g of the crude powder obtained in the above step B is charged over the silica gel to form a uniform, thin layer. After the crude powder is charged, the same solvent is poured gradually into the column from the top and thereafter elution is carried out continuously at a flow rate of about 50 ml/hour. The eluate is recovered in 20 ml fractions and each of the fractions is subjected to determination of activity by the paper disc method using Bacillus subtilis No. 10707. First, Fortimicin B is eluted followed by Fortimicin A. Then, the elution is continued and after Fortimicin C is eluted, Fortimicin D is eluted. The active fractions are subjected to thin layer chromatography and the fractions containing Fortimicin D are combined and concentrated under reduced pressure to sufficiently remove the solvent.
About 500 ml of silica gel, suspended in a solvent comprising isopropanol, chloroform, and concentrated aqueous ammonia (4:2:1 by volume) is packed in a glass column as a tight, uniform layer. Thereafter, the column is thoroughly washed with the same solvent. Then the crude powder obtained above is charged over the silica gel in a uniform thin layer and the same solvent is poured gradually into the column from the top and thereafter elution is carried out continuously at a flow rate of about 50 ml/hour. The eluate is recovered in 20 ml fractions and each of the fractions is subjected to determination of activity by the paper disc method using Bacillus subtilis No. 10707. First, Fortimicin B is eluted followed by Fortimicin KE. […]

Data set [4] concerns Shigella sonnei ATCC 9290. Put plainly: antibacterial spectrum, MIC by agar dilution method. Type of data set: cell-based. As to conditions: ATCC9290, pH 8.0, read-out: Minimum Inhibitory Concentration.
Source text: as §1, §2, §3
(In general: In agar dilution the substance is mixed into plates at graded concentrations.)

The next data set deals with Escherichia coli KY 8327. Described as above. Type of data set: cell-based. As to conditions: for MIC: Escherichia coli.
Source text: as §1, §2, §3

Data set [5] deals with Staphylococcus aureus ATCC 6538P. The description is as above. The settings on record: ATCC6538P, pH 8.0, read-out: Minimum Inhibitory Concentration. Type of data set: cell-based.
Source text: as §1, §2, §3

The test system of data set [6] is Bacillus subtilis No. 10707. The data set is described as above. Type of data set: cell-based. As to conditions: pH 8.0, read-out: Minimum Inhibitory Concentration.
Source text: as §1, §2, §3

In data set [7] the test system is Klebsiella pneumoniae ATCC 10031. The data set is described as above. Type of data set: cell-based.
Source text: as §1, §2, §3

For data set [8], the system named is Salmonella typhosa ATCC 9992. Described as above. As to conditions: Salmonella enterica, pH 8, read-out: Minimum Inhibitory Concentration. The data set is classed as cell-based.
Source text: as §1, §2, §3

A further data set has as its system Escherichia coli KY 8315. The description is as above. The data set is classed as cell-based.
Source text: as §1, §2, §3

The next data set relates to Escherichia coli ATCC 26. Described as above. The data set is classed as cell-based.
Source text: as §1, §2, §3

The subject of data set [9] is Pseudomonas aeruginosa BMH No. 1. The description is as above. As to conditions: BMHNO.1, pH 8.0, read-out: Minimum Inhibitory Concentration. The data set is classed as cell-based.
Source text: as §1, §2, §3

Data set [10] in a line: stability in alkaline solution. The data set is classed as physicochemical.
The next data set can be described thus: LD50 for dd-mouse. As to conditions: in vivo; dd-mouse weighing 20 ± 1 g. The text has this:
Further, Fortimicin D is expected to have a therapeutic effect on various infections (in human beings and in animals) induced by the above-mentioned various bacteria. […] With such antibacterial properties, Fortimicin D is applicable to medicinal purposes.

Data set [11] relates to Pseudomonas aeruginosa KY 8510. The data set is described as follows: antibacterial spectrum, MIC by agar dilution method. The data set is classed as cell-based. As to conditions: KY8510, pH 8.0, strain resistant to kanamycin, kanamycin B, tobramycin, gentamicin C1a and ribostamycin, read-out: Minimum Inhibitory Concentration.
Source text: as §1, §2, §3

[12] abbreviates: Examples 2 and 3, before cellulose column chromatography.
[13] abbreviates: Examples 2 and 3, free base after cellulose column chromatography.
The mark [14] stands for this setting: Examples 4 and 5, purified preparate, Casamino acid medium.
Where [15] appears, read: Table 5, purified preparate from Micromonospora olivoasterospora MK-70.
The mark [16] stands for this setting: Table 5, purified preparate from Micromonospora olivoasterospora MK-80.
Setting [17] is: Table 5, purified preparate from Micromonospora olivoasterospora Mm 744.
Where [18] appears, read: preparate of Example 1, strain CS-26, silica gel chromatography.

With `CNC1C(O)C(OC2OC(CN)CCC2N)C(N)C(O)C1OC` (stereo not shown) [Fortimicin KE], the “antibacterial activity / spectrum” value in data set [1] is “broad antibacterial spectrum”. The “solubility in organic solvents” value in data set [2] was “poorly soluble; also recorded: insoluble”. Also, in data set [2], the “solubility in ethanol and acetone” value was “slightly soluble”. Besides, the solubility in methanol result in [2] is “soluble”. The solubility in water result in [2] is on record as “readily soluble”. In addition, the activity result in data set [3] (Example 7, free base obtained from Fortimicin D with barium hydroxide) is given as “about 970 unit/mg”; in data set [3] (setting [12]) it was “about 860 unit/mg”; in data set [3] (setting [13]) it was 980 unit/mg; in data set [3] (setting [14]), “about 985 unit/mg”; in data set [3] (setting [15]), 985 unit/mg; in data set [3] (setting [16]) it was 980 unit/mg. Also, the activity in [3] (setting [17]) is reported as 990 unit/mg; in data set [3] (setting [18]), “about 970 unit/mg”. Also, the MIC in data set [4] worked out at 26.1 µg/mL (≈ 78 µM); in the data set on Escherichia coli KY 8327 (KY8327, pH 8, read-out: Minimum Inhibitory Concentration) it was 26.1 µg/mL (≈ 78 µM); in [5], 1.65 µg/mL (≈ 4.93 µM); in [6], 104 µg/mL (≈ 312 µM); in data set [7] (ATCC10031, pH 8, read-out: Minimum Inhibitory Concentration), 26.1 µg/mL (≈ 78 µM); in data set [8], 13.1 µg/mL (≈ 39.2 µM). Besides, the MIC in the data set with Escherichia coli KY 8315 (KY8315, pH 8, read-out: Minimum Inhibitory Concentration) is 26.1 µg/mL (≈ 78 µM); in the data set with Escherichia coli ATCC 26 (ATCC26, pH 8, read-out: Minimum Inhibitory Concentration), 26.1 µg/mL (≈ 78 µM); in data set [9], 208 µg/mL (≈ 623 µM). Also, in data set [10], the “stability in an alkaline solution” value was “stable in an alkaline solution”.

On to `CNC1C(O)C(OC2OC(CN)CCC2N)C(N)C(O)C1OC` (stereo not shown) [sulfate of Fortimicin KE], for which the activity entry in [3] (Examples 8 and 9, sulfate) is “about 610 unit/mg”.

The compound `COC1C(O)C(N)C(OC2OC(CN)CCC2N)C(O)C1N(C)C(=O)CN` (stereo not shown) [Fortimicin D sulfate] came in with a median lethal dose (LD50) in the data set “LD50 for dd-mouse” of 159 mg/kg. For the same compound, the activity entry in data set [3] (Examples 8 and 9, sulfate) is “about 650 unit/mg”.

As for `COC1C(O)C(N)C(OC2OC(CN)CCC2N)C(O)C1N(C)C(=O)CN` (stereo not shown) [Fortimicin D], the “antibacterial activity / spectrum” value in [1] is “strong antibacterial activity against a broad range of Gram-positive and Gram-negative bacteria”. Further, the “solubility in organic solvents” value in data set [2] was “poorly soluble; also recorded: insoluble”. Also, the “solubility in ethanol and acetone” value in data set [2] is on record as “slightly soluble”. Besides, the solubility in methanol result in data set [2] is on record as “soluble”. In addition, in data set [2], the solubility in water entry was “readily soluble”. The activity result in [3] (setting [12]) is “about 840 unit/mg”; in [3] (setting [13]) it was 970 unit/mg; in data set [3] (setting [14]), “about 975 unit/mg”; in data set [3] (setting [15]), 985 unit/mg; in data set [3] (setting [16]), 975 unit/mg; in data set [3] (setting [17]), 990 unit/mg. Also, the activity result in [3] (setting [18]) was “about 980 unit/mg”. The MIC in data set [4] stood at 0.3 µg/mL (≈ 0.766 µM); in the data set with Escherichia coli KY 8327 (KY8327, agar dilution method, pH 8.0, strain resistant to kanamycin, gentamicin and tobramycin, read-out: Minimum Inhibitory Concentration), 0.13 µg/mL (≈ 0.332 µM); in [11], 5 µg/mL (≈ 12.8 µM); in data set [5] it was 0.02 µg/mL (≈ 0.0511 µM); in data set [6] it was 0.02 µg/mL (≈ 0.0511 µM); in [7] (ATCC10031, agar dilution method, pH 8.0, read-out: Minimum Inhibitory Concentration), 0.08 µg/mL (≈ 0.204 µM). The MIC in data set [8] was found to be 0.08 µg/mL (≈ 0.204 µM); with Escherichia coli KY 8315 (KY8315, agar dilution method, pH 8.0, read-out: Minimum Inhibitory Concentration), 0.13 µg/mL (≈ 0.332 µM); in the data set with Escherichia coli ATCC 26 (ATCC26, agar dilution method, pH 8.0, read-out: Minimum Inhibitory Concentration), 0.32 µg/mL (≈ 0.817 µM); in [9], 5 µg/mL (≈ 12.8 µM). Further, the “activity against resistant Escherichia coli” value with Escherichia coli KY 8327 (certain strains of Escherichia coli resistant to kanamycin, gentamicin and tobramycin) was “effective against certain strains of Escherichia coli which are resistant to kanamycin, gentamicin and tobramycin”.

For the origin of these results see US4145253A, “Process for producing fortimicin factors” (Abbott Laboratories, priority 1976, dated 1979).
